In patent publication US12358912B2 (ASCENTAGE PHARMA (SUZHOU) CO., LTD., priority 2020, dated 2025):

Experiments:
Format in all cases: physicochemical
[1] = Stability test (2): salt crystalline forms at high temperature, high humidity and light, detection by HPLC and XRPD; details: for total impurities (%): HPLC
[2] = Evaluation of hygroscopicity by Dynamic Moisture Sorption Analyzer (DVS), with XRPD before and after DVS; details: for weight increase by hygroscopy (80% RH): DVS; for XRPD change: XRPD before and after DVS
[3] = Stability test (1): physical and chemical stability by XRPD and HPLC at 80° C., 40° C./75% RH and 25° C./60% RH; details: for purity (area %): HPLC
Description: (sealed) for 24 hours, at 40° C./75% RH and 25° C./60% RH (open) for 1 week, respectively. The physical and chemical stability of the samples were tested by XRPD and HPLC.

[4] = light (RT, white light 6980 lux, UV 282 μW/cm2), 5 days
[5] = light (RT, white light 6980 lux, UV 282 μW/cm2), 10 days
[6] = 80° C. (sealed) 24 hours, 40° C./75% RH and 25° C./60% RH (open) 1 week
[7] = 60° C. (open), 5 days, listed as XL
[8] = 60° C. (open), 10 days, listed as XL
[9] = 60° C. (open), 30 days, listed as XL
[10] = light (RT, white light 6980 lux, UV 282 μW/cm2), 5 days, listed as XL
[11] = light (RT, white light 6980 lux, UV 282 μW/cm2), 10 days, listed as XL
[12] = 60° C. (open), 5 days, listed as XXXVI
[13] = 60° C. (open), 10 days, listed as XXXVI
[14] = 60° C. (open), 30 days, listed as XXXVI
[15] = light (RT, white light 6980 lux, UV 282 μW/cm2), 5 days, listed as XXXVI
[16] = light (RT, white light 6980 lux, UV 282 μW/cm2), 10 days, listed as XXXVI

| Structure (SMILES) | XPRD ([1]; 60° C. (open), 5 days) | XPRD ([1]; 60° C. (open), 10 days) | XPRD ([1]; 60° C. (open), 30 days) | total impurities (%) ([1]; 60° C. (open), 5 days) | total impurities (%) ([1]; 60° C. (open), 10 days) | total impurities (%) ([1]; 60° C. (open), 30 days) | total impurities (%) ([1]; RT/75% RH (open), 5 days) | total impurities (%) ([1]; RT/75% RH (open), 10 days) | total impurities (%) ([1]; RT/75% RH (open), 30 days) | total impurities (%) [1, 4] | total impurities (%) [1, 5] | total impurities (%) ([1]; the initial sample, 0 day) | XPRD ([1]; RT/75% RH (open), 5 days) | XPRD ([1]; RT/75% RH (open), 10 days) | XPRD ([1]; RT/75% RH (open), 30 days) | XPRD [1, 4] | XPRD [1, 5] | XPRD ([1]; the initial sample, 0 day) | weight increase by hygroscopy (80% RH) [2] | XRPD change [2] | also measured |
| --- | --- | --- | --- | --- | --- | --- | --- | --- | --- | --- | --- | --- | --- | --- | --- | --- | --- | --- | --- | --- | --- |
| O=C(NS(=O)(=O)c1ccc(NC[C@H]2COCCO2)c([N+](=O)[O-])c1)c1ccc(N2CCN(CC3=C(c4ccc(Cl)cc4)CC4(CCC4)CC3)CC2)cc1Oc1cnc2[nH]ccc2c1.O=C(O)/C=C\C(=O)O [XXIV] | No change | No change | No change | 0.48% | 0.48% | 0.61% | 0.50% | 0.50% | 0.50% | 0.73% | 0.72% | 0.50% | No change | No change | No change | No change | No change | XXIV | 1.246% | changed |  |
| O=C(NS(=O)(=O)c1ccc(NCC2COCCO2)c([N+](=O)[O-])c1)c1ccc(N2CCN(CC3=C(c4ccc(Cl)cc4)CC4(CCC4)CC3)CC2)cc1Oc1cnc2[nH]ccc2c1 (centres unmarked) [amorphous form XXV] |  |  |  |  |  |  |  |  |  |  |  |  |  |  |  |  |  |  |  |  | chemical stability: degradation (HPLC purity) [3, 6]: did not degrade; physical stability: crystalline form (XRPD) [3, 6]: did not change; purity (area %) ([3]; 25° C./60% RH 1 week (open)): 99.42 area %; purity (area %) ([3]; 40° C./75% RH 1 week (open)): 99.45 area %; purity (area %) ([3]; 80° C. 24 hours (sealed)): 99.42 area %; purity (area %) ([3]; starting point): 99.43 area % |
| O=C(NS(=O)(=O)c1ccc(NC[C@H]2COCCO2)c([N+](=O)[O-])c1)c1ccc(N2CCN(CC3=C(c4ccc(Cl)cc4)CC4(CCC4)CC3)CC2)cc1Oc1cnc2[nH]ccc2c1.O=C(O)CC(O)(CC(=O)O)C(=O)O [XXXIX] | No change | No change | No change | 0.90% | 0.89% | 0.86% | 0.80% | 0.82% | 0.81% | 0.88% | 1.02% | 0.76% | No change | No change | No change | No change | No change | XXXIX | 0.37% | no change |  |
| CS(=O)(=O)O.O=C(NS(=O)(=O)c1ccc(NC[C@H]2COCCO2)c([N+](=O)[O-])c1)c1ccc(N2CCN(CC3=C(c4ccc(Cl)cc4)CC4(CCC4)CC3)CC2)cc1Oc1cnc2[nH]ccc2c1 [XXXIII] |  |  |  | 0.90% | 0.91% | 1.11% | 0.67% | 0.71% | 0.70% | 0.84% | 1.09% | 0.67% |  |  |  | No change | No change | XXXIII | 7.82% | changed |  |
| O=C(NS(=O)(=O)c1ccc(NCC2COCCO2)c([N+](=O)[O-])c1)c1ccc(N2CCN(CC3=C(c4ccc(Cl)cc4)CC4(CCC4)CC3)CC2)cc1Oc1cnc2[nH]ccc2c1 (centres unmarked) [maleate crystalline Form XL] |  |  |  |  |  |  |  |  |  |  |  |  | No change | No change |  |  |  |  |  | no change | XPRD [1, 7]: No change; XPRD [1, 8]: No change; XPRD [1, 9]: No change; total impurities (%) [1, 7]: 1.15%; total impurities (%) [1, 8]: 1.18%; total impurities (%) [1, 9]: 1.28%; total impurities (%) ([1]; RT/75% RH (open), 5 days, listed as XL): 0.93%; total impurities (%) ([1]; RT/75% RH (open), 10 days, listed as XL): 1.06%; total impurities (%) ([1]; RT/75% RH (open), 30 days, listed as XL): 0.90%; total impurities (%) [1, 10]: 1.08%; total impurities (%) [1, 11]: 1.18%; total impurities (%) ([1]; the initial sample, 0 day, listed as XL): 0.91%; XPRD [1, 10]: No change; XPRD [1, 11]: No change; weight increase by hygroscopy (80% RH) ([2]; listed as XL): 1.41% |
| O=C(NS(=O)(=O)c1ccc(NCC2COCCO2)c([N+](=O)[O-])c1)c1ccc(N2CCN(CC3=C(c4ccc(Cl)cc4)CC4(CCC4)CC3)CC2)cc1Oc1cnc2[nH]ccc2c1 (centres unmarked) [citrate crystalline Form XXXVI] |  |  |  |  |  |  |  |  |  |  |  |  |  |  |  |  |  | XXXVI |  | no change | XPRD [1, 12]: changed; XPRD [1, 13]: changed; XPRD [1, 14]: changed; total impurities (%) [1, 12]: 0.97%; total impurities (%) [1, 13]: 1.01%; total impurities (%) [1, 14]: 0.98%; total impurities (%) ([1]; RT/75% RH (open), 5 days, listed as XXXVI): 0.95%; total impurities (%) ([1]; RT/75% RH (open), 10 days, listed as XXXVI): 0.95%; total impurities (%) ([1]; RT/75% RH (open), 30 days, listed as XXXVI): 1.00%; total impurities (%) [1, 15]: 1.06%; total impurities (%) [1, 16]: 1.36%; total impurities (%) ([1]; the initial sample, 0 day, listed as XXXVI): 1.02%; XPRD [1, 15]: no change; XPRD [1, 16]: no change; weight increase by hygroscopy (80% RH) ([2]; listed as XXXVI): 2.00% |

Second part, led by results:

| XPRD ([1]; 60° C. (open), 5 days) | XPRD ([1]; 60° C. (open), 10 days) | XPRD ([1]; 60° C. (open), 30 days) | total impurities (%) ([1]; 60° C. (open), 5 days) | total impurities (%) ([1]; 60° C. (open), 10 days) | total impurities (%) ([1]; 60° C. (open), 30 days) | total impurities (%) ([1]; RT/75% RH (open), 5 days) | total impurities (%) ([1]; RT/75% RH (open), 10 days) | total impurities (%) ([1]; RT/75% RH (open), 30 days) | total impurities (%) [1, 4] | total impurities (%) [1, 5] | total impurities (%) ([1]; the initial sample, 0 day) | XPRD ([1]; RT/75% RH (open), 5 days) | XPRD ([1]; RT/75% RH (open), 10 days) | XPRD ([1]; RT/75% RH (open), 30 days) | XPRD [1, 4] | XPRD [1, 5] | XPRD ([1]; the initial sample, 0 day) | weight increase by hygroscopy (80% RH) [2] | XRPD change [2] | Structure (SMILES) | also measured |
| --- | --- | --- | --- | --- | --- | --- | --- | --- | --- | --- | --- | --- | --- | --- | --- | --- | --- | --- | --- | --- | --- |
| No change | No change | No change | 0.64% | 0.65% | 0.66% | 0.65% | 0.65% | 0.60% | 0.64% | 0.59% | 0.65% | No change | No change | No change | No change | No change | XXIX | 0.948% | no change | Cc1ccc(S(=O)(=O)O)cc1.O=C(NS(=O)(=O)c1ccc(NC[C@H]2COCCO2)c([N+](=O)[O-])c1)c1ccc(N2CCN(CC3=C(c4ccc(Cl)cc4)CC4(CCC4)CC3)CC2)cc1Oc1cnc2[nH]ccc2c1 [XXIX] |  |
| No change | No change | No change | 1.26% | 1.37% | 1.33% | 1.22% | 1.25% | 1.27% | 1.20% | 1.28% | 1.19% | No change | No change | No change | No change | No change | XXVII | 3.32% | no change | O=C(NS(=O)(=O)c1ccc(NC[C@H]2COCCO2)c([N+](=O)[O-])c1)c1ccc(N2CCN(CC3=C(c4ccc(Cl)cc4)CC4(CCC4)CC3)CC2)cc1Oc1cnc2[nH]ccc2c1.O=S(=O)(O)c1ccccc1 [XXVII] |  |
| No change | No change | No change | 0.89% | 0.92% | 0.83% | 0.82% | 0.86% | 0.74% | 0.82% | 1.02% | 0.80% | No change | No change | No change | No change | No change | XXX | 0.90% | no change | O=C(NS(=O)(=O)c1ccc(NC[C@H]2COCCO2)c([N+](=O)[O-])c1)c1ccc(N2CCN(CC3=C(c4ccc(Cl)cc4)CC4(CCC4)CC3)CC2)cc1Oc1cnc2[nH]ccc2c1.O=S(=O)(O)O [XXX] |  |
